Some test systems named below: SF-539; EKVX; OVCAR-8; SK-MEL-2; DU-145; SF-295; SF-268; HCT-116; RXF 393; OVCAR-5; HCT-15; Malme-3M; BT-549; ACHN; NCI-H23; UACC-62; MDA-MB-435; MDA-N; NCI/ADR-RES; SR.
Holding throughout (assay): NCI anticancer screen, dose series, 48 h

Structures are written as SMILES.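 Each compound was tested at five concentrations against cells in 96-well plates for 48 hours. GI50 = concentration required for 50% inhibition of growth.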 Active and inactive are the calls of the source. No stated cut-off is given here; in the data, active = GI50 up to about 1.1 µM and inactive = higher. Bounds are passed on as bounds.

With `O=[N+]([O-])c1ccc2nc3c(nc2c1)-c1c2ccccc2cc2cccc-3c12`, the GI50 is 15 µM (inactive) in the experiment on SF-539; 26.4 µM (inactive) in the experiment on EKVX; 7.55 µM (inactive) with OVCAR-8; 27.2 µM (inactive) in the experiment on SK-MEL-2; 28.2 µM (inactive) with DU-145; 19.6 µM (inactive) with SF-295. The GI50 in the experiment with SF-268 is 13.8 µM (inactive); with HCT-116, 2.87 µM (inactive); with RXF 393, 8.41 µM (inactive); in the experiment on OVCAR-5, 51.8 µM (inactive); with HCT-15 it was 6.28 µM; in the experiment with Malme-3M, 19 µM (inactive). Moreover, the GI50 in the experiment with BT-549 is 3.56 µM (inactive); with ACHN, 2.74 µM (inactive); in the experiment on NCI-H23, 3.61 µM (inactive); in the experiment on UACC-62, 10.5 µM (inactive); with MDA-MB-435, 27.8 µM (inactive); in the experiment with MDA-N, 10.5 µM (inactive). The GI50 with NCI/ADR-RES is 3.97 µM (inactive).

Take `COc1ccc(OC)c(N2C(=O)CSC2c2cc(OC)c(OC)c(OC)c2)c1` (stereo unspecified): the GI50 in the experiment on SF-539 is > 100 µM (inactive); with EKVX, > 100 µM (inactive); in the experiment on OVCAR-8, > 100 µM (inactive); in the experiment on SK-MEL-2, > 100 µM (inactive); in the experiment with DU-145, > 100 µM (inactive); with SR, 46 µM (inactive). The GI50 was > 100 µM (inactive) in the experiment with SF-295; > 100 µM (inactive) with SF-268; > 100 µM (inactive) in the experiment on HCT-116; > 100 µM (inactive) in the experiment with OVCAR-5; 98.4 µM with HCT-15; > 100 µM (inactive) in the experiment with Malme-3M. Also, the GI50 in the experiment with BT-549 is 48.4 µM (inactive); in the experiment with ACHN it was > 100 µM (inactive); with NCI-H23 it was > 100 µM (inactive); with UACC-62, > 100 µM (inactive); with MDA-MB-435, 29.8 µM (inactive); with MDA-N, 33.4 µM (inactive). The GI50 in the experiment on NCI/ADR-RES was > 100 µM (inactive).

For `NNc1nncc2[nH]nnc12`, the GI50 is > 100 µM (inactive) in the experiment with SF-539; > 100 µM (inactive) in the experiment with EKVX; > 100 µM (inactive) in the experiment on OVCAR-8; > 100 µM (inactive) in the experiment on SK-MEL-2; > 100 µM (inactive) in the experiment with DU-145; 41.5 µM (inactive) in the experiment with SR. In addition, the GI50 in the experiment on SF-295 was > 100 µM (inactive); in the experiment with SF-268 it was > 100 µM (inactive); in the experiment with HCT-116 it was > 100 µM (inactive); with RXF 393 it was > 100 µM (inactive); in the experiment on OVCAR-5, > 100 µM (inactive); with HCT-15, above 100 µM. In addition, the GI50 in the experiment on BT-549, in the experiment with ACHN, in the experiment with NCI-H23, with UACC-62, in the experiment with MDA-MB-435 and in the experiment with MDA-N was > 100 µM (inactive) in each case. The GI50 in the experiment on NCI/ADR-RES was > 100 µM (inactive).

For the compound `CN(C)Cc1cc(/N=N/c2ccccc2Cl)ccc1O`, the GI50 with SF-539 was 24.3 µM (inactive); in the experiment with EKVX, 49.3 µM (inactive); with OVCAR-8, 6.05 µM (inactive); with DU-145, 23.5 µM (inactive); in the experiment with SR it was 26.5 µM (inactive); with SF-295 it was 16.6 µM (inactive). The GI50 is 25.1 µM (inactive) in the experiment with SF-268; 28.1 µM (inactive) in the experiment with HCT-116; 20.3 µM (inactive) with RXF 393; 22.9 µM (inactive) in the experiment with OVCAR-5; 20.1 µM in the experiment on HCT-15; 12.6 µM (inactive) with Malme-3M. Further, the GI50 in the experiment with BT-549 was 17 µM (inactive); with ACHN, 12.1 µM (inactive); with NCI-H23, 24.7 µM (inactive); in the experiment on UACC-62, 18.6 µM (inactive); in the experiment on MDA-MB-435 it was 17.7 µM (inactive); with MDA-N, 17.5 µM (inactive). In addition, in the experiment on NCI/ADR-RES, the GI50 is 25.4 µM (inactive).

Take `CN(C)C(=S)SCC(=O)Nc1ccccc1`: the GI50 with EKVX, with OVCAR-8, in the experiment on SK-MEL-2, in the experiment on DU-145, in the experiment on SR and in the experiment with SF-295 was > 100 µM (inactive) each time. The GI50 is > 100 µM (inactive) in the experiment with SF-268; > 100 µM (inactive) in the experiment with HCT-116; > 100 µM (inactive) in the experiment on RXF 393; > 100 µM (inactive) with OVCAR-5; above 100 µM in the experiment with HCT-15; > 100 µM (inactive) in the experiment with Malme-3M. In addition, the GI50 in the experiment with BT-549, with ACHN, in the experiment on NCI-H23, with UACC-62, in the experiment with MDA-MB-435 and in the experiment on MDA-N was > 100 µM (inactive) throughout. Besides, the GI50 in the experiment with NCI/ADR-RES was > 100 µM (inactive).

Consider `C[C@]12CCC(=O)C=C1CC[C@@H]1[C@@H]2CC[C@]2(C)C(=O)/C(=C\c3ccccc3)C[C@@H]12`, for which the GI50 with SF-539 is 21.6 µM (inactive); with EKVX it was 19 µM (inactive); with OVCAR-8 it was 21.7 µM (inactive); in the experiment on SK-MEL-2, 11.7 µM (inactive); with DU-145 it was 33.5 µM (inactive); with SR it was 4.53 µM (inactive). The GI50 in the experiment on SF-295 is 29.9 µM (inactive); in the experiment with HCT-116, 11.4 µM (inactive); in the experiment with RXF 393, 41.1 µM (inactive); in the experiment with OVCAR-5, 50 µM (inactive); in the experiment on HCT-15 it was 21.9 µM; in the experiment on Malme-3M it was 29.4 µM (inactive). The GI50 with BT-549 is 25.8 µM (inactive); in the experiment with ACHN it was 33.3 µM (inactive); in the experiment with NCI-H23, 14.2 µM (inactive); in the experiment with UACC-62, 23.4 µM (inactive); in the experiment with MDA-MB-435, 24.9 µM (inactive); with MDA-N, 16 µM (inactive). For the same compound, in the experiment on NCI/ADR-RES, the GI50 was 14 µM (inactive).

In the case of `Cc1ccc(Cc2n[nH]c(=O)n2/N=C\CC/C=N\n2c(Cc3ccc(C)cc3)n[nH]c2=O)cc1`, the GI50 with SF-539 was 3.99 µM (inactive); in the experiment with EKVX, 33.7 µM (inactive); in the experiment with OVCAR-8, 17.8 µM (inactive); in the experiment on SK-MEL-2, 28 µM (inactive); in the experiment on DU-145 it was > 100 µM (inactive); with SF-295, 29.9 µM (inactive). The GI50 in the experiment with SF-268 is 18 µM (inactive); with HCT-116, 33.1 µM (inactive); in the experiment with RXF 393, 20.9 µM (inactive); in the experiment with OVCAR-5, > 100 µM (inactive); in the experiment with HCT-15 it was 26 µM; with Malme-3M it was 33.2 µM (inactive). Further, the GI50 in the experiment with BT-549 is 23 µM (inactive); in the experiment on ACHN, 47.1 µM (inactive); in the experiment with NCI-H23, 26.9 µM (inactive); in the experiment with UACC-62, 25.8 µM (inactive); in the experiment on MDA-MB-435 it was 36.3 µM (inactive); in the experiment with MDA-N it was 37.1 µM (inactive). The GI50 in the experiment with NCI/ADR-RES was 21.1 µM (inactive).

Consider `COc1cc2c(cc1OC)C1c3ccccc3CCN1CCC2.[O-][Cl+3]([O-])([O-])O` (stereo unspecified), for which the GI50 in the experiment on SF-539, with EKVX, with OVCAR-8, in the experiment on DU-145, in the experiment with SR and in the experiment with SF-295 was > 100 µM (inactive) each time. In addition, the GI50 is > 100 µM (inactive) in the experiment on SF-268; 74.3 µM (inactive) with HCT-116; > 100 µM (inactive) in the experiment with OVCAR-5; above 100 µM in the experiment with HCT-15; > 100 µM (inactive) in the experiment with Malme-3M; 23.6 µM (inactive) in the experiment on BT-549. Further, the GI50 is > 100 µM (inactive) with ACHN; > 100 µM (inactive) with UACC-62; 83.6 µM (inactive) in the experiment on MDA-MB-435; > 100 µM (inactive) in the experiment with MDA-N; > 100 µM (inactive) with NCI/ADR-RES.

Turning to `OCC(CN1CCCCC1)(CN1CCCCC1)CN1CCCCC1`, the GI50 was > 100 µM (inactive) in the experiment with SF-539; > 100 µM (inactive) in the experiment on EKVX; > 100 µM (inactive) in the experiment with OVCAR-8; > 100 µM (inactive) with DU-145; > 100 µM (inactive) in the experiment on SR; > 10 µM (inactive) in the experiment on SF-295. Further, the GI50 with SF-268 was > 100 µM (inactive); in the experiment on HCT-116, > 100 µM (inactive); with RXF 393 it was > 100 µM (inactive); with OVCAR-5, > 100 µM (inactive); with HCT-15, above 100 µM; in the experiment with Malme-3M it was > 100 µM (inactive). In addition, the GI50 with BT-549, in the experiment on ACHN, with NCI-H23, with UACC-62, in the experiment with MDA-MB-435 and in the experiment on MDA-N was > 100 µM (inactive) throughout. The GI50 in the experiment on NCI/ADR-RES was > 100 µM (inactive).

Regarding `O=C(O)c1cc2ccccc2c(S(=O)(=O)O)c1O`, the GI50 in the experiment on SF-539, with EKVX, with OVCAR-8, in the experiment with SK-MEL-2, with DU-145 and in the experiment with SF-295 was > 100 µM (inactive) throughout. Moreover, the GI50 is > 100 µM (inactive) in the experiment with SF-268; > 100 µM (inactive) in the experiment on HCT-116; > 100 µM (inactive) in the experiment with RXF 393; > 100 µM (inactive) with OVCAR-5; above 100 µM with HCT-15; > 100 µM (inactive) with Malme-3M. The GI50 with BT-549, in the experiment with ACHN, in the experiment with NCI-H23, in the experiment with UACC-62, in the experiment on MDA-MB-435 and in the experiment with MDA-N was > 100 µM (inactive) each time. In the experiment with NCI/ADR-RES, the GI50 is > 100 µM (inactive).

Consider `O=C(O)Cc1c[nH]c2ccc(F)cc12`, for which the GI50 in the experiment with SF-539, in the experiment on EKVX, in the experiment on OVCAR-8, in the experiment on SK-MEL-2, with DU-145 and in the experiment on SR was > 100 µM (inactive) in each case. The GI50 is > 100 µM (inactive) with SF-295; > 100 µM (inactive) in the experiment with HCT-116; > 100 µM (inactive) with RXF 393; > 100 µM (inactive) in the experiment with OVCAR-5; above 100 µM in the experiment with HCT-15; > 100 µM (inactive) in the experiment with BT-549. Also, the GI50 in the experiment with ACHN, in the experiment with NCI-H23, in the experiment on UACC-62, in the experiment with MDA-MB-435, with MDA-N and in the experiment with NCI/ADR-RES was > 100 µM (inactive) throughout.

Source of the values: ChEMBL document CHEMBL1201862, “PubChem BioAssay data set” (2004).
